Source: patent publication US20250171495A1, “MUTLI-TARGETED SERINE PROTEASE INHIBITORS FOR TREATMENT OF CANCER AND VIRAL INFECTION” (Washington University, priority 2023, published 2025)
Read-outs that look alike come from different tables or passages of the source.

Key:
Format in all cases: biochemical
TMPRSS2 = TMPRSS2 (Homo sapiens, UniProt O15393); assay: Fluorogenic kinetic enzyme inhibitor assay, TMPRSS2; parameters: purchased Cusabio Technology CSB-YP023924HU
hepsin = molecular target: T1, hepsin (Homo sapiens, UniProt P05981); assay: Fluorogenic kinetic enzyme inhibitor assay, hepsin
T1 construct: purchased R&D Systems 4776-SE-010

matriptase = molecular target: T2, matriptase (Homo sapiens, UniProt Q9Y5Y6); assay: Fluorogenic kinetic enzyme inhibitor assay, matriptase
T2 construct: purchased R&D Systems 3946-SEB-010
T2 sequence (Q9Y5Y6 615-855 limits assumed): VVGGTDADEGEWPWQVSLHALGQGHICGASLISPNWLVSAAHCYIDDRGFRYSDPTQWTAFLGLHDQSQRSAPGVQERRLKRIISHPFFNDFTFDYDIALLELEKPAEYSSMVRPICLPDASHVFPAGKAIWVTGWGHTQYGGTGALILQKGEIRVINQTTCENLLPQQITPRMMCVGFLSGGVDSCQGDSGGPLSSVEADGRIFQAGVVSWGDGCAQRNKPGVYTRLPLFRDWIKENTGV

T1 sequence (P05981 163-417 limits assumed): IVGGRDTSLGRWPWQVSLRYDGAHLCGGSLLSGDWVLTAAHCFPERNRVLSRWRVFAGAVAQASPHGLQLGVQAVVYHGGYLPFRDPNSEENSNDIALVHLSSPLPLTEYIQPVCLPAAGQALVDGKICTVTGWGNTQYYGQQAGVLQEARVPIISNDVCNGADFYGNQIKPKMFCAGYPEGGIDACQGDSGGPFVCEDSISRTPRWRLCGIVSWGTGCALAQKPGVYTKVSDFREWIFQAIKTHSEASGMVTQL
T1 sequence (P05981 1-162 partner limits assumed): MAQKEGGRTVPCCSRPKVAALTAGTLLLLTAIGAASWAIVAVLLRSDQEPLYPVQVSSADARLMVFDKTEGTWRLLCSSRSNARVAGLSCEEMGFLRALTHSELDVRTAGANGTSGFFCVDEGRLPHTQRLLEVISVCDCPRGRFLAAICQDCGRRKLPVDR
TMPRSS2, sequence (O15393 106-492 limits assumed): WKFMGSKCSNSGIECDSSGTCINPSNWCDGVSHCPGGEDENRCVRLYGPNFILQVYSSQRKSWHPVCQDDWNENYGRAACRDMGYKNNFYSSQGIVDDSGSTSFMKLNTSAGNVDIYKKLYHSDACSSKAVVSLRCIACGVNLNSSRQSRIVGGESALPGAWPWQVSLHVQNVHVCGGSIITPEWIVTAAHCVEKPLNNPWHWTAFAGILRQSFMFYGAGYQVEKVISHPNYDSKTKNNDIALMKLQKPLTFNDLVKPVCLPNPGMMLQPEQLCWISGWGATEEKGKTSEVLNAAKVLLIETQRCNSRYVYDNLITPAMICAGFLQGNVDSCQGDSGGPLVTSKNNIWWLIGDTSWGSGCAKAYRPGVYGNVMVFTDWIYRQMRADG

Compound | IC50 (TMPRSS2; read-out: TMPRSS2 IC50) [nM] | IC50 (hepsin; read-out: Hepsin IC50) [nM] | IC50 (matriptase; read-out: Matriptase IC50) [nM] | IC50 (TMPRSS2) [nM] | IC50 (hepsin) [nM] | IC50 (matriptase) [nM]
N=C(N)NCCC[C@H](NC(=O)[C@H](Cc1ccccc1)NC(=O)[C@H](CCC(N)=O)NS(=O)(=O)c1ccccc1)C(=O)c1nc2ccccc2s1 [MF1101, N-[(S)-1-[N-(S)-1-[(1,3-benzothiazol-2-yl)carbonyl]-4-guanidinobutylcarbamoyl]-2-phenylethyl](S)-2-(phenylsulfonylamino) glutaramide] | 1.02 | 0.8 | 2.89 |  |  | 
N=C(N)NCCC[C@H](NC(=O)[C@H](Cc1ccccc1)NC(=O)[C@H](CCC(N)=O)NS(=O)(=O)C1CC1)C(=O)c1nc2ccccc2s1 [MF1104, N-[(S)-1-[N-(S)-1-[(1,3-benzothiazol-2-yl)carbonyl]-4-guanidinobutylcarbamoyl]-2-phenylethyl](S)-2-(cyclopropylsulfonylamino) glutaramide] | 0.273 | 1.07 | 5.59 |  |  | 
N=C(N)NCCC[C@H](NC(=O)[C@H](Cc1ccccc1)NC(=O)[C@H](CCC(N)=O)NS(=O)(=O)Cc1ccccc1)C(=O)c1nc2ccccc2s1 [MF1105, N-[(S)-1-[N-(S)-1-[(1,3-benzothiazol-2-yl)carbonyl]-4-guanidinobutylcarbamoyl]-2-phenylethyl](S)-2-(benzylsulfonylamino) glutaramide] | 0.07 | 0.31 | 1.48 |  |  | 
CC(=O)N[C@@H](CCC(C)C)C(=O)N[C@@H](CCC(=O)OC1CCCCC1)C(=O)N[C@@H](Cc1ccc(F)cc1)C(=O)N[C@@H](CCCNC(=N)N)C(=O)c1nc2ccccc2s1 [MF1125, cyclohexyl (S)-4-[(S)-1-acetylamino-4-methylpentylcarbonylamino]-4-[N-(S)-2-(p-fluorophenyl)-1-[N-(S)-1-[(1,3-benzothiazol-2-yl)carbonyl]-4-guanidinobutylcarbamoyl]ethylcarbamoyl]butyrate] |  |  |  | 0.085 | 3.5 | 3.05
N=C(N)NCCC[C@H](NC(=O)[C@H](Cc1ccc(F)cc1)NC(=O)OCC1c2ccccc2-c2ccccc21)C(=O)c1nc2ccccc2s1 [MF1131, (S)-2-(p-fluorophenyl)-1-[N-(S)-1-[(1,3-benzothiazol-2-yl)carbonyl]-4-guanidinobutylcarbamoyl]ethyl (9H-fluoren-9-yl)methanecarbamate] | 14 | 1130 | 967 |  |  | 
N=C(N)NCCC[C@H](NC(=O)[C@H](Cc1ccc(F)c(F)c1)NC(=O)OCC1c2ccccc2-c2ccccc21)C(=O)c1nc2ccccc2s1 [MF1132, (S)-2-(3,4-difluorophenyl)-1-[N-(S)-1-[(1,3-benzothiazol-2-yl)carbonyl]-4-guanidinobutylcarbamoyl]ethyl (9H-fluoren-9-yl)methanecarbamate] | 28.6 | 231 | 144 |  |  | 
N=C(N)NCCC[C@H](NC(=O)[C@H](Cc1cccc(Cl)c1)NC(=O)OCC1c2ccccc2-c2ccccc21)C(=O)c1nc2ccccc2s1 [MF1134, (S)-2-(m-chlorophenyl)-1-[N-(S)-1-[(1,3-benzothiazol-2-yl)carbonyl]-4-guanidinobutylcarbamoyl] ethyl (9H-fluoren-9-yl)methanecarbamate] | 6.3 | 1630 | > 20000 |  |  | 
C=CCOC(=O)CC[C@H](NC(=O)[C@H](CCC(C)C)NC(C)=O)C(=O)N[C@@H](Cc1ccc(F)cc1)C(=O)N[C@@H](CCCNC(=N)N)C(=O)c1nc2ccccc2s1 [MF1140, allyl (S)-4-[(S)-1-acetylamino-4-methylpentylcarbonylamino]-4-[N-(S)-2-(p-fluorophenyl)-1-[N-(S)-1-[(1,3-benzothiazol-2-yl)carbonyl]-4-guanidinobutylcarbamoyl]ethylcarbamoyl]butyrate] |  |  |  | 0.001 | 11 | 2.89
N=C(N)NCCC[C@H](NC(=O)[C@H](Cc1cccc(F)c1)NC(=O)OCC1c2ccccc2-c2ccccc21)C(=O)c1nc2ccccc2s1 [MF1141, (S)-2-(m-fluorophenyl)-1-[N-(S)-1-[(1,3-benzothiazol-2-yl)carbonyl]-4-guanidinobutylcarbamoyl] ethyl (9H-fluoren-9-yl)methanecarbamate] | 12.8 | 346 | 1140 |  |  | 
N=C(N)NCCC[C@H](NC(=O)[C@H](CC1CCCCC1)NC(=O)OCC1c2ccccc2-c2ccccc21)C(=O)c1nc2ccccc2s1 [MF1142, (S)-2-cyclohexyl-1-[N-(S)-1-[(1,3-benzothiazol-2-yl)carbonyl]-4-guanidinobutylcarbamoyl] ethyl (9H-fluoren-9-yl)methanecarbamate] | 0.04 | 2390 | 2810 |  |  | 
N=C(N)NCCC[C@H](NC(=O)[C@H](Cc1cccc2ccccc12)NC(=O)OCC1c2ccccc2-c2ccccc21)C(=O)c1nc2ccccc2s1 [MF1144, (S)-2-(1-naphthyl)-1-[N-(S)-1-[(1,3-benzothiazol-2-yl)carbonyl]-4-guanidinobutylcarbamoyl] ethyl (9H-fluoren-9-yl)methanecarbamate] | > 20000 | 1410 | > 20000 |  |  | 
N=C(N)NCCC[C@H](NC(=O)[C@H](CCC1CCCCC1)NC(=O)OCC1c2ccccc2-c2ccccc21)C(=O)c1nc2ccccc2s1 [MF1149, (S)-3-cyclohexyl-1-[N-(S)-1-[(1,3-benzothiazol-2-yl)carbonyl]-4-guanidinobutylcarbamoyl] propyl (9H-fluoren-9-yl)methanecarbamate] | > 20000 | 2310 | 18 |  |  | 
CCC[C@H](NC(=O)OCC1c2ccccc2-c2ccccc21)C(=O)N[C@@H](CCCNC(=N)N)C(=O)c1nc2ccccc2s1 [MF1150, (S)-1-[N-(S)-1-[(1,3-benzothiazol-2-yl)carbonyl]-4-guanidinobutylcarbamoyl] butyl (9H-fluoren-9-yl)methanecarbamate] | 19.3 | 29.5 | 5.44 |  |  | 
N=C(N)NCCC[C@H](NC(=O)[C@H](CCc1ccccc1)NC(=O)OCC1c2ccccc2-c2ccccc21)C(=O)c1nc2ccccc2s1 [MF1152, (S)-1-[N-(S)-1-[(1,3-benzothiazol-2-yl)carbonyl]-4-guanidinobutylcarbamoyl]-3-phenylpropyl (9H-fluoren-9-yl)methanecarbamate] | 200 | > 20000 | 47.4 |  |  | 
N=C(N)NCCC[C@H](NC(=O)[C@H](Cc1cn(Cc2ccccc2)cn1)NC(=O)OCC1c2ccccc2-c2ccccc21)C(=O)c1nc2ccccc2s1 [MF1158, (S)-2-(1-benzyl-4-imidazolyl)-1-[N-(S)-1-[(1,3-benzothiazol-2-yl)carbonyl]-4-guanidinobutylcarbamoyl] ethyl (9H-fluoren-9-yl)methanecarbamate] | 68.7 | > 20000 | 39.9 |  |  | 
N=C(N)NCCC[C@H](NC(=O)[C@H](CCCCOCc1ccccc1)NC(=O)OCC1c2ccccc2-c2ccccc21)C(=O)c1nc2ccccc2s1 [MF1165, (S)-5-(benzyloxy)-1-[N-(S)-1-[(1,3-benzothiazol-2-yl)carbonyl]-4-guanidinobutylcarbamoyl] pentyl (9H-fluoren-9-yl)methanecarbamate] | 0.864 | 0.1 | 31.1 |  |  | 
N=C(N)NCCC[C@H](NC(=O)[C@H](Cc1csc2ccccc12)NC(=O)OCc1ccccc1)C(=O)c1nc2ccccc2s1 [MF1168, (S)-2-(1-benzothiophen-3-yl)-1-[N-(S)-1-[(1,3-benzothiazol-2-yl)carbonyl]-4-guanidinobutylcarbamoyl] ethyl-phenylmethanecarbamate] | 0.264 | > 20000 | > 20000 |  |  | 
